From patent US20040146585A1, “Use of thiol-based compositions in treating chemotherapeutic agent-induced thrombocytopenia” (Oregon Health & Science University, priority 2002, published 2004)

System: patients with malignant brain tumors
Source text: Blood/bone marrow toxicity data from patients with malignant brain tumors treated with carboplatin-based regimens with or without delayed high-dose STS were graded in accordance with National Cancer Institute Common Toxicity Criteria (NCI CTC) (version 2.0).
Treatment Regimen. Patients with a variety of malignant brain tumor histologies, including metastases to the brain, were eligible for treatment. Patients who had previously undergone central nervous system or systemic radiotherapy or chemotherapy were eligible, however 2 weeks must have elapsed since prior radiotherapy and 4 weeks since prior chemotherapy. Patients were required to have normal hematologic, renal and hepatic function.
The BBBD procedure was done on two consecutive days, approximately every 4 weeks for up to 12 months. Mannitol (25%) was infused (5-10 cc/sec) into the appropriate internal carotid or vertebral artery, depending on tumor location, for 30 seconds. The combination chemotherapy regimen consisted of cyclophosphamide (330 Mg/m^2/day×2 days; total dose, 660 mg/m^2) (i.v.) beginning approximately 20 minutes before the mannitol infusion, carboplatin (200 mg/m^2/day×2 days; total dose, 400 Mg/m^2) (i.a.) administered over 10 minutes, within 5 minutes after the mannitol, and etoposide (i.v.) or etoposide phosphate (200 mg/m^2/day×2 days; total dose, 400 mg/m^2) (i.a. or i.v.). Patients received granulocyte-colony stimulating factor (G-CSF) (5 mcg/kg) for 10 days after chemotherapy or until the absolute neutrophil count was greater than 1000/μL.
STS was available as a 25% (250 mg/ml) solution. Dose was determined (16 or 20 grams/m^2) and mixed with an equivalent amount of sterile water (1 ml: 1 ml) for infusion. […] The most commonly used regimen was benadryl (12.5 mg), dexamethasone (6 mg), and if needed, ativan (0.5-1.0 mg), i.v. 30-45 minutes before STS.
STS was administered i.v. over about 15 minutes. The number of STS doses the patient received depended on the patient baseline hearing status, and whether they experienced an ototoxic shift during treatment. Patients treated with BBBD/STS received STS in one dose (20 grams/m^2) 4 hours after carboplatin (n=10), or two doses (20 grams/m^2 at 4 hrs, and 16 grams/m^2 at 8 hours) after carboplatin (n=19).
Because malignant brain tumor patients are at risk for intracerebral hemorrhage, patients underwent platelet transfusion when platelet count was <20×10^3/mm^3. Following a platelet transfusion, on subsequent chemotherapy courses the carboplatin dose was reduced 25%.
Data Analysis. Blood/bone marrow toxicity data were graded in accordance with NCI CTC and analyzed in the following […] treatment groups: 1) patients treated with carboplatin, cyclophosphamide and etoposide with BBBD and without STS, and 2) patients treated with carboplatin, cyclophosphamide and etoposide phosphate with BBBD and with STS. For both groups, blood/bone marrow toxicity data from all carboplatin-based courses of patients in treatment were included in the analysis.
First, platelet nadirs were plotted for each subject and as means for each of the three study groups. For group comparisons, a mixed, repeated measures analysis of variance (ANOVA) model was fit using the parameter platelet nadir for each course as the measure. Gender, […] (≧70 or not), prior chemotherapy, prior radiation, and age at first course were included as covariates. Several other events were examined including grade 3 or 4 platelet toxicity as defined by NCI CTC, platelet transfusion, and the need for hematologically driven chemotherapy dose reduction. […] For present/absent outcomes as these, a mixed model repeated measures analysis (using the present/absent outcomes as the best response for each course) was performed. The mixed model ANOVA's using presence/absence of the outcome was adjusted for the covariates listed above.
Analyses were performed using Version 8.01 of SAS® for Windows.

For `O=S([O-])([O-])=S.[Na+].[Na+]` [STS, sodium thiosulfate], the “adverse effects caused by high-dose STS” value (16 or 20 grams/m^2 i.v., National Cancer Institute CTC, version 2.0) was “transient hypematremia, hypertension, and controllable grade II nausea and vomiting”, the “patients requiring dose reduction of carboplatin” value (BBBD with STS) was “no patients” and the “Platelet Nadir <20 × 10^3/mm^3, percent of carboplatin courses” value (BBBD/STS, 129 courses) was 1% courses. The “Platelet Transfusions, percent of carboplatin courses” value (BBBD/STS, 129 courses) was 2% courses, the “Dose Reductions of carboplatin, percent of patients” value (BBBD/STS, n = 29) was 0% pts and the “Platelet Transfusions, percent of patients” value (BBBD/STS, n = 29) was 7% pts. For the same molecule, the “Platelet Nadir <20 × 10^3/mm^3, percent of patients” value (BBBD/STS, n = 29, carboplatin, cyclophosphamide, etoposide phosphate, STS i.v. 20 grams/m^2 at 4 h (and 16 grams/m^2 at 8 h) after carboplatin) was 4% pts, the “grade 3 or 4 white blood cell toxicity, treatment groups with vs without STS” value (NCI CTC) was “no significant difference among treatment groups” and the “grade 3 or 4 platelet toxicity, treatment groups with vs without STS” value (NCI CTC, adjusted for age at first carboplatin treatment, p=0.14) was “no significant difference among the treatment groups”. The “rates of dose reduction of carboplatin, treatment groups with vs without STS” value (Pearson chi-square test) was “difference between the treatment groups was significant”, the “platelet transfusion (present or absent), treatment groups with vs without STS” value (mixed model, p=0.035) was “significant difference between the treatment groups” and the “platelet nadir <20×10^3/mm^3 (binary), treatment groups with vs without STS” value (mixed-model analysis of variance controlling for KPS≧70 and prior chemotherapy, p=0.0002) was “significant difference among the two treatment groups”. The “estimated probabilities of platelet transfusions” value (patients treated with BBBD and STS, mixed model estimate (22.4% for BBBD without STS)) was 9.0%.
